The target of experiment [1] is T1, hVAChT Y60A (Homo sapiens, UniProt Q16572, Y60A).
T1 sequence (Q16572 1-532 Y60A): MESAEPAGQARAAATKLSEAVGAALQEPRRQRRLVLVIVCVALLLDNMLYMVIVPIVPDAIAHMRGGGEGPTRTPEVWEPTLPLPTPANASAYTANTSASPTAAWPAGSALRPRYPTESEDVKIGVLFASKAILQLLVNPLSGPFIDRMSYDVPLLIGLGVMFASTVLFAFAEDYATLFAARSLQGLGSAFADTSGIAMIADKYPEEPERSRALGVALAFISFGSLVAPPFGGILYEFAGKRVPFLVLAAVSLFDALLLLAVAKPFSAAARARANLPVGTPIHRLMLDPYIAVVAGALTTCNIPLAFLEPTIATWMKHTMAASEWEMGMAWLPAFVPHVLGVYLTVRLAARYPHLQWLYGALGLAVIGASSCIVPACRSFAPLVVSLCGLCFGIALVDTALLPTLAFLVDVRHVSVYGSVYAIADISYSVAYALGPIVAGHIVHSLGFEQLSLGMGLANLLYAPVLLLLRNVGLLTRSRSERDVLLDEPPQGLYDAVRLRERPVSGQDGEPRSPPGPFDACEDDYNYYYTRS
Kind of experiment: [3H]vesamicol saturation binding. The settings on record: pH 7.4.

The next experiment deals with T2, hVAChT W331A (Homo sapiens, UniProt Q16572, W331A).
T2 sequence (Q16572 1-532 W331A): T1 sequence (Q16572 1-532 Y60A) with A60Y, W331A
The experiment in a line: [3H]vesamicol saturation binding. The following applies: pH 7.4.

Experiment [2] concerns the target T1, hVAChT Y60A. Kind of experiment: ACh equilibrium binding by competition against [3H]vesamicol.
The target in the next experiment is T3, hVAChT Y60H (Homo sapiens, UniProt Q16572, Y60H).
T3 sequence (Q16572 1-532 Y60H): T1 sequence (Q16572 1-532 Y60A) with A60H
Kind of experiment: [3H]ACh transport. In kind it is biochemical.

The target in a further experiment is T4, hVAChT K317A (Homo sapiens, UniProt Q16572, K317A).
T4 sequence (Q16572 1-532 K317A): T1 sequence (Q16572 1-532 Y60A) with A60Y, K317A
The experiment in a line: ACh equilibrium binding by competition against [3H]vesamicol.

The next experiment deals with T5, hVAChT W325H (Homo sapiens, UniProt Q16572, W325H).
T5 sequence (Q16572 1-532 W325H): T1 sequence (Q16572 1-532 Y60A) with A60Y, W325H
The description is as above.

Here are results for 2 compounds from PMC2962730 (Journal of neurochemistry, 2010).

Changes are numbered by the printed parent chain.

In general, Kd refers to the constant that tells how readily two partners part at equilibrium. A lower Kd goes with tighter binding. The Km is the concentration of substrate that gives half-maximal velocity.

Regarding `O[C@@H]1CCCC[C@H]1N1CCC(c2ccccc2)CC1` (racemic) [vesamicol, ( )-trans-2-(4-phenylpiperidino)cyclohexanol], the “Bmax, maximal specific [3H]vesamicol binding (VAChT expression level)” value at hVAChT Y60A [1] stood at 31 ± 2 pmol/mg; on hVAChT W331A it was 37 ± 2 pmol/mg.
Turning to `CC(=O)OCC[N+](C)(C)C` [ACh, acetylcholine], the Kd at hVAChT Y60A [2] was determined as 8.2 ± 0.7 mM; at hVAChT K317A, 6.9 ± 1.2 mM; at hVAChT W325H, 5.5 ± 0.9 mM. Besides, the “FHA, fraction of the ACh sites that have high affinity” value on hVAChT Y60A [2] (Y60A hVAChT, pH 7.4) turned out to be 0.92 ± 0.02; on hVAChT K317A (K317A hVAChT, pH 7.4) it was 0.72 ± 0.06; on hVAChT W325H (W325H hVAChT, pH 7.4) it was 0.82± 0.06. The “Vmax/Bmax, ACh transport normalized to Bmax” value at hVAChT Y60H (pH 7.4) was 3.1 ± 0.6 min⁻¹. Besides, the Km on hVAChT Y60H (read-out: KM, Michaelis-Menten constant for ACh transport, pH 7.4) is 720 ± 530 µM.
